Measured values taken from patent publication US8518884B2, “Methods for treating atrial or ventricular arrhythmias by administering a G-protein alpha inhibitor” (Northwestern University, priority 2008, dated 2013).
Ends that are not written are not given here.

Experiments:
left atrium = assay: Functional studies in pacing-induced CHF and control canine subjects: left atrial ERPs under autonomic manipulation; type: in vivo
Experimental: Canine subjects were divided into three groups. In group 1, CHF was induced by rapid ventricular pacing for 4 weeks (i.e. when the animals began to develop clinical heart failure. In group 2, pacing was performed for only 3 weeks. Group three were control canine subjects not subjected to rapid ventricular pacing. At the end of follow up period, high-density epicardial mapping was performed in the PVs, the PLA and the LAA. ERPs were obtained at multiple sites under the following conditions: a) baseline (BSL), b) left cervical vagal stimulation at 20 Hz (VS), c) beta-stimulation with isoproterenol (ISO), d) beta-blockade with propranolol (PROP) and e) beta-blockade+vagal stimulation (P+VS). VS caused significant mean ERP shortening in all three groups. […] PROP increased the VS effect on ERP in normal controls, but produced an attenuation of this effect in the CHF group (SEE FIG. 37). In this CHF model, after 4 weeks of pacing, an increased vagal effect on atrial refractoriness, an increased cumulative sympathetic effect, and a change in the sympatho-vagal interactions of the left atrium were observed. After 3 weeks of pacing, there is pronounced autonomic remodeling, with evidence of P as well S nerve upregulation in the PVs and left atrium. Both P and S upregulation are more pronounced in the PLA (and to a lesser extent in the PVs) than in the rest of the left atrium. While vagal responsiveness in the left atrium is unaltered at 3 weeks of pacing, it increases after 4 weeks of pacing. […] The autonomic remodeling becomes more pronounced with increasing duration of pacing. […] The increase in β1 binding is consistent with the increase in sympathetic innervation. […] The P upregulation noted in the left atrium in CHF is a compensatory response to S upregulation that occurs in response to CHF. […] However, since normal atria are more densely innervated with vagal fibers (than the ventricle) and also contain a significant amount of IKAch, the compensatory response is likely to be more vigorous in the atrium. The compensatory increase in vagal innervations, and resulting increase in IKAch, may contribute to increased AF substrate.

M2R|Gαi/o interactions [1] = target: T1, M2R|Gαi/o interactions (Canis lupus familiaris, UniProt A0A8I3N4M6); assay: Gαx minigenes in the PLA: vagal-induced ERP shortening, AF inducibility, AF duration and dominant frequency 3 days after delivery; type: in vivo, dog
T1 construct: from tissue; host or cells: posterior left atrium of intact dogs (in vivo), 3 days after minigene injection and electroporation
T1 sequence (A0A8I3N4M6 1-466): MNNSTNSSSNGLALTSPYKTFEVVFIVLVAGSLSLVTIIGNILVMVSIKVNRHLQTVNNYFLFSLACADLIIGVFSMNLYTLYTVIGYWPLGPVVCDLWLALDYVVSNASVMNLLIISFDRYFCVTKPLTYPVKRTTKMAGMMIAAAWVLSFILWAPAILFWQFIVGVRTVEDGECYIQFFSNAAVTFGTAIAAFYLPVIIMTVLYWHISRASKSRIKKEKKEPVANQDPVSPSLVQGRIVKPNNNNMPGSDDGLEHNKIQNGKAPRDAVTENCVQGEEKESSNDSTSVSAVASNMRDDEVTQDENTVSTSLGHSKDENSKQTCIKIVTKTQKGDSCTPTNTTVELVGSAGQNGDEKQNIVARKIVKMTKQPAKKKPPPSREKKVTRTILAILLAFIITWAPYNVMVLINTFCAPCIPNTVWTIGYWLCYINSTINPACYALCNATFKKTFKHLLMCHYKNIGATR
Experimental: (§1) In a small number of pilot experiments (N=6), 1 mg of Gαi2ctp or GαRp minigene was injected subepicardially in the PLA (also see Results). In the remaining experiments, 15-20 mg of ct-Gαi2ctp (N=5), or 7-10 mg of Gαi2ctp+7-10 mg of Gαo1ctp (N=3), or GαRp (N=5) minigenes was injected in the PLA. Minigenes were made up to a volume of 4 ml and injected at multiple sites (6-8 equally spaced sites, 0.5-1 cm apart; a volume of approximately 0.5 ml was injected at each site) in the PLA so as to cover the entire area between the PVs. […] Immediately after gene injection, electroporation was performed at each site of injection as follows: two gold-plated, needle-style electrodes (10 mm length each) were placed at each gene injection site on the PLA, with an inter-electrode distance of 5 mm; electroporation with performed as previously described in the lung by Dean et al^14, with 8 pulses of is at […] (ECM 830, Harvard Bioscience, Holliston, Mass.). After minigene delivery, the chest was closed and the animal allowed to recover. Vagal stimulation and electrophysiological testing were not performed at baseline, in order to minimize damage to the vagus nerve.
Baseline study: Three days after the initial study, the chest was re-opened. […] The PV plaque was placed circumferentially around the vein while the other two plaques were laid flat on the PLA and LAA epicardium. Effective refractory periods (ERPs) were obtained from 5, 6, and 4 sites on the PV, PLA, and LAA plaque, respectively, at baseline.
Vagal stimulation: For vagal stimulation, the left cervical vagus nerve was isolated, a bipolar stainless steel electrode was attached to the nerve, and stimulation was performed at 20 Hz (15-20V, 2-8 ms) (Grass S44G, Astromed Inc, R1). A vagal response was defined as: 1) sinus node slowing by at least 25% or 2) PR prolongation by more than 25% or 2:1 AV block^13. ERP testing was performed in the presence and absence of VS.
(§2) Atrial Fibrillation Inducibility: AF was defined as an atrial arrhythmia that was irregular in at least one of the recording electrodes. Regular atrial arrhythmias—e.g., atrial flutter and atrial tachycardia—were excluded from AF analysis. AF inducibility was measured as the inducibility index and duration of AF episodes after a single extrastimulus^8,15. As previously described, the inducibility index was defined as the number of AF episodes lasting more than 5 seconds induced by a single atrial extrastimulus divided by the total number of single atrial extrastimuli delivered to measure each ERP (at least 3 for each site)^8. The inducibility index was compared for each maneuver. Mean AF duration for each intervention was also assessed. All data was acquired by a 128-channel mapping system (Prucka Cardiolab, GE, WI) at a sampling rate of 977 Hz. All AF episodes induced during extrastimulus testing were stored for offline analysis. After all ERPs had been obtained, minigene injection was performed as described below.
Offline Electrogram Analysis. Electrograms recorded during the maximum duration AF episodes obtained during extrastimulus testing were analyzed with dominant frequency (DF) analysis. DF is an estimation of activation rate calculated as the frequency with the most power in the power spectrum. The power spectrum is obtained from the Fast Fourier Transform of an electrogram after rectification and low pass filtering (20 Hz). These analyses were performed offline using Matlab (Mathworks, Natick, Mass.).
(§3) Effective Refractory Periods. For each ERP, the pacing protocol was composed of a drive train (S1) of eight beats with a cycle length of 400 ms followed by an extrastimulus (S2). The S2 was decremented by 10 ms until loss of capture. […] Pacing was performed at an output current twice the threshold required for consistent capture of the tissue. The mean ERP was used as the representative ERP for each of the three sites as well as the entire left atrium.

M2R|Gαi/o interactions [2] = target: T1, M2R|Gαi/o interactions; assay: Gαx minigenes in the PLA: CCh-induced ERP shortening and AF 3 days after delivery; type: in vivo, dog
Experimental: as §1
CCh application: ERP shortening was assessed by direct application of CCh, a non-selective MR agonist, to the PLA. […] After each dose, ERP testing was performed in the PLA.
as §2, §3

Gαi = assay: cp-Gα peptide delivery to the PLA with electroporation/sonoporation: ERPs and AF inducibility with vagal stimulation; type: in vivo, canine
Experimental: High-density epicardial mapping was performed in the PVs (2×2 electrodes), the PLA (7×3 electrodes) and the left atrial appendage (LAA) (7×3 electrodes) of canine subjects. Effective refractory periods (ERPs) were obtained at baseline and in response left cervical vagal stimulation (VS) (20 Hz). Cp-Gαi2 peptide (200-330 nM) was then applied topically to the epicardial aspect of the PLA in a canine subgroup. Cp-Gαi3 peptide (200-330 nM) was then applied topically to the epicardial aspect of the PLA of a second subgroup. Electroporation was performed after the application of peptide to enhance intracellular delivery of the peptide. ERPs were then re-measured in the presence and absence of VS.
In canine subjects, high-density epicardial mapping was performed in the PVs (2×2 electrodes), the PLA (7×3 electrodes) and the left atrial appendage (LAA) (7×3 electrodes). Effective refractory periods (ERPs) were obtained at baseline and in response left cervical vagal stimulation (VS) (20 Hz). FLAG-tcp-Gα peptides (200 nM-3 μM of cp-Gαi1/2 (N=8 canine subjects), cp-Gαi3 (N=4 canine subjects), or random-sequence cp-GαoR peptide (N=3 canine subjects) were injected into the PLA epicardium of the canine subjects followed by either sonoporation or electroporation. In a subgroup of the canine subjects, sonoporation or electroporation alone was performed without introduction of cp-Gαi peptide. ERPs were then re-measured in the presence and absence of VS. In a separate set of control animals, ERPs were measured before and after the administration of systemic autonomic blockade with propranolol (0.2 mg/kg)+atropine (0.04 mg/kg).

[3] = 200 nM-3 μM injected into PLA + sono/electroporation

CC(C)NCC(O)COc1cccc2ccccc12 (stereo not drawn) [PROP, propranolol]
effect on ERPs (left atrium; CHF canine subjects): ERP lengthening
effect on the VS effect on ERP (left atrium; CHF group): attenuation
effect on ERPs (left atrium; control canine subjects): significant shortening of ERPs
effect on the VS effect on ERP (left atrium; normal controls): increased

IKNNLKDCGLF [Gαi2ctp]
vagal-induced ERP shortening in the PLA (M2R|Gαi/o interactions [1]; 3 days after minigene delivery, mean±SE): 19.5 ± 5.0 ms
vagal-induced ERP shortening in the PLA (M2R|Gαi/o interactions [1]; compared to GαRcpt, FIG. 29A): attenuated
vagal-induced ERP shortening in the PV and LAA (M2R|Gαi/o interactions [1]; compared to GαRp dogs): no significant difference
AF inducibility in response to VS (M2R|Gαi/o interactions [1]; inducibility index, vs. GαRp dogs): significantly less
VS-induced increase in AF dominant frequency (DF) (M2R|Gαi/o interactions [1]; vs. GαRp dogs): significantly less
mean AF duration in response to VS (M2R|Gαi/o interactions [1]; vs. GαRp dogs): significantly less
CCh-induced ERP shortening in the PLA (M2R|Gαi/o interactions [2]; 3 μM, 10 μM CCh, compared to GαRp dogs): significantly less
CCh-induced ERP shortening in the PLA (M2R|Gαi/o interactions [2]; 30 μM CCh, compared to GαRp dogs): no significant difference
CCh-induced ERP shortening in the PLA (M2R|Gαi/o interactions [2]; CCh 3, 10 and 30 μM, compared to baseline ERP): only at 30 μM CCh
AF duration in response to CCh (M2R|Gαi/o interactions [2]; vs. GαRp dogs): significantly less
AF inducibility in response to CCh (M2R|Gαi/o interactions [2]; vs. GαRp dogs): significantly less

cp-Gαi3: cell-penetrating poly-arginine tagged Gαi3 C-terminal peptide (IKNNLKECGLY; also: cell-penetrating poly-arginine tag, length and site not given here)
VS-induced ERP shortening in the LAA (Gαi; [3]): reduced
VS-induced ERP shortening in the PLA (Gαi; [3]): eliminated
VS induced ERP shortening (Gαi; 200-330 nM topical to PLA + electroporation, PLA, PV and LAA): significantly attenuated
